Results as given in patent publication US9328099B2, “Cyanomethylpyrazole carboxamides as janus kinase inhibitors” (Merck Sharp & Dohme Corp., priority 2011, dated 2016).

Columns and labels:
[1] = biological target: JAK1 (Homo sapiens (Human), UniProt P23458); assay: Jak Biochemical HTRF Assay, JAK1; conditions: HTRF biochemical assay, GST-tagged catalytic domain; top concentration tested […]; read-out: JAK1 IC50
Excerpt: (§1) Jak Biochemical HTRF Assay Protocol
(§2) Subsequent reagent additions employed an Agilent Bravo.

[2] = biological target: JAK2 (Homo sapiens (Human), UniProt O60674); assay: Jak Biochemical HTRF Assay, JAK2; conditions: HTRF biochemical assay, GST-tagged catalytic domain; top concentration tested […]
Chain of JAK2 (O60674 849-1124): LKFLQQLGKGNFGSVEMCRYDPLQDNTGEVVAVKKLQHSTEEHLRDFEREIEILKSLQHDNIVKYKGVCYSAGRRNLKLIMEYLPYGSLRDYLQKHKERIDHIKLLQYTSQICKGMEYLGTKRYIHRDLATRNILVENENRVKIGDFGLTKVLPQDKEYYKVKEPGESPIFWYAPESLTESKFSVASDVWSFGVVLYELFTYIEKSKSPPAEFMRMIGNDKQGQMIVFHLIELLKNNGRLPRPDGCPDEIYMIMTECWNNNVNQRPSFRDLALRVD
Excerpt: as §1, §2

Chain of JAK1 (P23458 875-1153): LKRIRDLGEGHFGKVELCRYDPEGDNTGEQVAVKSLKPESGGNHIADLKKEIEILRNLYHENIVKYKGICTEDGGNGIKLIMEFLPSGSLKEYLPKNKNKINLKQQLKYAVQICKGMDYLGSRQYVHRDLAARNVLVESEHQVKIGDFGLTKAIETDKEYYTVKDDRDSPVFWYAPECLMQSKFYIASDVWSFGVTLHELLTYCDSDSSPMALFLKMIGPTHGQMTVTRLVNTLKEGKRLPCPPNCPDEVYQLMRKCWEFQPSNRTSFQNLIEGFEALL

IC50 [1] [nM] | IC50 [2] [nM] | SMILES
0.04 | 1 | N#CCC1(n2cc(C(N)=O)c(Nc3ccnc(F)c3)n2)CCN(Cc2cccc(O)c2)CC1 [Example 22-70, 1-[4-(cyanomethyl)-1-(3-hydroxybenzyl)piperidin-4-yl]-3-[(2-fluoropyridin-4-yl)amino]-1H-pyrazole-4-carboxamide]
5 | 137 | N#CCC1(n2cc(C(N)=O)c(Nc3ccc(F)cc3)n2)CCC(N2CCc3ccccc32)CC1 (stereo not drawn) [Example 40-49, Cis or trans 1-[1-(cyanomethyl)-4-(2,3-dihydro-1H-indol-1-yl)cyclohexyl]-3-[(4-fluorophenyl)amino]-1H-pyrazole-4-carboxamide]
51 | 1100 | CC(C)(C)OC(=O)N1CCC(CC#N)(n2cc(C(N)=O)c(Nc3cccc(-c4ccc(F)cc4)c3)n2)CC1 [Example 15-2, tert-butyl 4-{4-carbamoyl-3-[(4′-fluorobiphenyl-3-yl)amino]-1H-pyrazol-1-yl}-4-(cyanomethyl)piperidine-1-carboxylate]
2 | 29 | N#CCC1(n2cc(C(N)=O)c(Nc3ccc(F)cc3)n2)CCN(Cc2cncc(F)c2)CC1 [Example 22-49, 1-{4-(cyanomethyl)-1-[(5-fluoropyridin-3-yl)methyl]piperidin-4-yl}-3-[(4-fluorophenyl)amino]-1H-pyrazole-4-carboxamide]
6 | 211 | N#CCC1(n2cc(C(N)=O)c(Nc3ccc(F)cc3)n2)CCN(CC2CCCCC2)CC1 [Example 22-6, 1-[4-(cyanomethyl)-1-(cyclohexylmethyl)piperidin-4-yl]-3-[(4-fluorophenyl)amino]-1H-pyrazole-4-carboxamide]
45 | 861 | CCOc1cccc(N2CCC(CC#N)(n3cc(C(N)=O)c(Nc4ccc(F)cc4)n3)CC2)n1 [Example 3-16, 1-[4-(cyanomethyl)-1-(6-ethoxypyridin-2-yl)piperidin-4-yl]-3-[(4-fluorophenyl)amino]-1H-pyrazole-4-carboxamide]
2 | 83 | N#CCC1(n2cc(C(N)=O)c(Nc3ccnc(F)c3)n2)CCN(Cc2cccc(F)n2)CC1 [Example 22-32, 1-{4-(cyanomethyl)-1-[(6-fluoropyridin-2-yl)methyl]piperidin-4-yl}-3-[(2-fluoropyridin-4-yl)amino]-1H-pyrazole-4-carboxamide]
0.4 | 9 | N#CCC1(n2cc(C(N)=O)c(Nc3ccc(F)cc3)n2)CCN(Cc2cccnc2)CC1 [Example 22-51, 1-[4-(cyanomethyl)-1-(pyridin-3-ylmethyl)piperidin-4-yl]-3-[(4-fluorophenyl)amino]-1H-pyrazole-4-carboxamide]
4 | 53 | N#CCC1(n2cc(C(N)=O)c(Nc3ccc(F)cc3)n2)CCN(Cc2ccc3[nH]ccc3c2)CC1 [Example 22-55, 1-[4-(cyanomethyl)-1-(1H-indol-5-ylmethyl)piperidin-4-yl]-3-[(4-fluorophenyl)amino]-1H-pyrazole-4-carboxamide]
0.3 | 13 | N#CCC1(n2cc(C(N)=O)c(Nc3ccc(F)cc3)n2)CCN(Cc2ccccc2)CC1 [Example 22-7, 1-[1-benzyl-4-(cyanomethyl)piperidin-4-yl]-3-[(4-fluorophenyl)amino]-1H-pyrazole-4-carboxamide]
45 | 758 | N#CCC1(n2cc(C(N)=O)c(Nc3ccc(F)cc3)n2)CCC(Nc2ccccc2F)CC1 (stereo not drawn) [Example 40-60, Cis or trans 1-{1-(cyanomethyl)-4-[(2-fluorophenyl)amino]cyclohexyl}-3-[(4-fluorophenyl)amino]-1H-pyrazole-4-carboxamide]

Continued, compound first:

SMILES | IC50 [1] [nM] | IC50 [2] [nM]
N#CCC1(n2cc(C(N)=O)c(Nc3ccccc3)n2)CN(C(=O)Nc2cc(F)ccc2F)C1 [Example 38-10, 1-{3-(cyanomethyl)-1-[(2,5-difluorophenyl)carbamoyl]azetidin-3-yl}-3-(phenylamino)-1H-pyrazole-4-carboxamide] | 5 | 158
CN1CCN(c2ccc(C(=O)N3CCC(CC#N)(n4cc(C(N)=O)c(Nc5ccccc5)n4)CC3)cc2)CC1 [Example 34-34, 1-[4-(cyanomethyl)-1-{[4-(4-methylpiperazin-1-yl)phenyl]carbonyl}piperidin-4-yl] 3-(phenylamino)-1H-pyrazole-4-carboxamide] | 60 | 830
CC(C)(C)OC(=O)N1CCC(CC#N)(n2cc(C(N)=O)c(Nc3cccc(Cn4ccnc4)c3)n2)CC1 [Example 4-3, tert-butyl 4-(4-carbamoyl-3-{[3-(1H-imidazol-1-ylmethyl)phenyl]amino}-1H-pyrazol-1-yl)-4-(cyanomethyl)piperidine-1-carboxylate] | 0.6 | 11
N#CCC1(n2cc(C(N)=O)c(Nc3ccnc(F)c3)n2)CCC(NCC(F)(F)F)CC1 (stereo not drawn) [Example 40-93, Cis or trans 1-{1-(cyanomethyl)-4-[(2,2,2-trifluoroethyl)amino]cyclohexyl}-3-[(2-fluoropyridin-4-yl)amino]-1H-pyrazole-4-carboxamide] | 166 | > 1500
Cc1noc(C)c1-c1ccc(Nc2nn(C3(CC#N)CCN(C(=O)OC(C)(C)C)CC3)cc2C(N)=O)cc1 [Example 14, tert-Butyl 4-(4-carbamoyl-3-{[4-(3,5-dimethylisoxazol-4-yl)phenyl]amino}-1H-pyrazol-1-yl)-4-(cyanomethyl)piperidine-1-carboxylate] | 10 | 38
Cc1ccc(NC(=O)N2CC(CC#N)(n3cc(C(N)=O)c(Nc4ccccc4)n3)C2)cc1Cl [Example 38-13, 1-{1-[(3-chloro-4-methylphenyl)carbamoyl]-3-(cyanomethyl)azetidin-3-yl}-3-(phenylamino)-1H-pyrazole-4-carboxamide] | 21 | 339
CC(=O)N1CC(CC#N)(n2cc(C(N)=O)c(Nc3ccccc3)n2)C1 [Example 32, 1-[1-Acetyl-3-(cyanomethyl)azetidin-3-yl]-3-(phenylamino)-1H-pyrazole-4-carboxamide] | 94 | 510
Cc1cccc(Cl)c1NC(=O)N1CC(CC#N)(n2cc(C(N)=O)c(Nc3ccccc3)n2)C1 [Example 38-24, 1-{1-[(2-chloro-6-methylphenyl)carbamoyl]-3-(cyanomethyl)azetidin-3-yl}-3-(phenylamino)-1H-pyrazole-4-carboxamide] | 5 | 179
N#CCC1(n2cc(C(N)=O)c(Nc3ccccc3)n2)CCN(Cc2ccc(Cl)cc2F)CC1 [Example 21-21, 1-[1-(4-chloro-2-fluorobenzyl)-4-(cyanomethyl)piperidin-4-yl]-3-(phenylamino)-1H-pyrazole-4-carboxamide] | 3 | 44
N#CCC1(n2cc(C(N)=O)c(Nc3ccccc3)n2)CCN(C(=O)OC2Cc3ccccc3C2)CC1 [Example 30-34, 2,3-dihydro-1H-inden-2-yl 4-[4-carbamoyl-3-(phenylamino)-1H-pyrazol-1-yl]-4-(cyanomethyl)piperidine-1-carboxylate] | 3 | 83
N#CCC1(n2cc(C(N)=O)c(Nc3ccnc(F)c3)n2)CCC(NCc2ccc(O)cc2)CC1 (stereo not drawn) [Example 41-26, Cis or trans 1-{1-(cyanomethyl)-4-[(4-hydroxybenzyl)amino]cyclohexyl}-3-[(2-fluoropyridin-4-yl)amino]-1H-pyrazole-4-carboxamide] | 16 | 759
CCOc1ccccc1NC(=O)N1CC(CC#N)(n2cc(C(N)=O)c(Nc3ccccc3)n2)C1 [Example 38-30, 1-{3-(cyanomethyl)-1-[(2-ethoxyphenyl)carbamoyl]azetidin-3-yl}-3-(phenylamino)-1H-pyrazole-4-carboxamide] | 62 | 507
N#CCC1(n2cc(C(N)=O)c(Nc3ccccc3)n2)CCN(C(=O)CN2CCCC2=O)CC1 [Example 34-15, 1-{4-(cyanomethyl)-1-[(2-oxopyrrolidin-1-yl)acetyl]piperidin-4-yl}-3-(phenylamino)-1H-pyrazole-4-carboxamide] | 5 | 194
CC(C)(C)OC(=O)N1CCC(CC#N)(n2cc(C(N)=O)c(Nc3cccc(-c4ccc5ccccc5c4)c3)n2)CC1 [Example 15-9, tert-butyl 4-{4-carbamoyl-3-[(3-naphthalen-2-ylphenyl)amino]-1H-pyrazol-1-yl}-4-(cyanomethyl)piperidine-1-carboxylate] | 644 | 1480
COc1ccc(C(=O)N2CCC(CC#N)(n3cc(C(N)=O)c(Nc4ccccc4)n3)CC2)cc1 [Example 34-18, 1-{4-(cyanomethyl)-1-[(4-methoxyphenyl)carbonyl]piperidin-4-yl}-3-(phenylamino)-1H-pyrazole-4-carboxamide] | 8 | 137
CC(C)(C)OC(=O)N1CC[C@@](CC#N)(n2cc(C(N)=O)c(Nc3ccc(F)cc3)n2)[C@H](F)C1 (single isomer, unassigned) [Example 47-3, tert-butyl (3R,4S or 3S,4R)-4-{4-carbamoyl-3-[(4-fluorophenyl)amino]-1H-pyrazol-1-yl}-4-(cyanomethyl)-3-fluoropiperidine-1-carboxylate] | 2 | 32
N#CCC1(n2cc(C(N)=O)c(Nc3ccnc(F)c3)n2)CCN(Cc2cscn2)CC1 [Example 22-25, 1-[4-(cyanomethyl)-1-(1,3-thiazol-4-ylmethyl)piperidin-4-yl]-3-[(2-fluoropyridin-4-yl)amino]-1H-pyrazole-4-carboxamide] | 6 | 208
N#CCC1(n2cc(C(N)=O)c(Nc3ccccc3)n2)CCN(CC2CCCCC2)CC1 [Example 21-9, 1-[4-(cyanomethyl)-1-(cyclohexylmethyl)piperidin-4-yl]-3-(phenylamino)-1H-pyrazole-4-carboxamide] | 15 | 319
